Test results taken from patent US9844506B2, “Compositions and methods for affecting mood states” (priority 2013, dated 2017).

What was measured:
[1] = system: cutaneous vascular system; test: Laser Doppler circulation in five human subjects, 10,000 ppm NO formulation (Example 8); type: in vivo; details: positive control formulation containing 0.1% methyl nicotinate
Text: This example illustrates delivery of nitric oxide formulations to five human subjects, using procedures and formulations similar to those discussed in Example 5. Each person served as their own control for the testing. A Moor Instruments Laser Doppler was used to determine circulation. […] The formulations used produce positive, almost immediate results when applied to the skin which, in these studies, was manifested by vasodilatation of the cutaneous vascular system.
For each subject, the following creams were applied: a negative control formulation (containing no NO), 0.010 gram of a 10,000 ppm NO formulation, 0.020 gram of a 10,000 ppm NO formulation, and a positive control formulation containing 0.1% methyl nicotinate. The formulations were prepared using procedures similar to those discussed in Example 1.

[2] = system: microcirculation of the skin; test: Laser Doppler capillary blood flow in human female subjects, 10,000 ppm NO in closed chamber (Example 5); type: in vivo; details: applied to skin at 1/10% in alcohol
Text: The formulation used in these studies contained nitric oxide dispersed in a lipid matrix. […] Nitric oxide is a very rapid acting molecule, and these studies used a system that employed laser Doppler with a covered chamber. The formulation was placed into the chamber and then attached to the skin by an adhesive layer on the covering. This provided a stable measuring device as determined by multiple normal evaluations of the capillary blood flow without treatment of nitric oxide.
A known positive control, methyl nicotinate, was applied to the skin at a concentration of 1/10% in alcohol. […] The vascular dynamics are such that when the blood vessels dilate physical parameters follow Bernoulli's law. This states that as one increases the diameter of a tube containing a liquid to flow will increase but the pressure and the speed of the liquid will decrease. The laser Doppler device accurately measured these parameters.
The test product was labeled as 10,000 ppm NO (nitric oxide). The study participants had 100 mg of the test product applied in a closed Hilltop chamber on the forearm. […]
A Moor Instruments DRT4 Laser Doppler Blood Flow Monitor (Devon, England) was used in these studies. The laser Doppler technique measured blood flow in the microcapillaries of the skin that are close to the skin surface and the blood flow in underlying arterioles and venules that help to regulate skin temperature. […]

[3] = Interaction of nitric oxide with carriers, weight gain on bubbling NO gas (Example 2); type: physicochemical; details: NO bubbled 40 hr, 25° C.
Method: In this example, six experiments were carried out to investigate the interaction of nitric oxide with three carriers (HNC 157-62, HNC 157-65, and HNC 157-69) as well as with 1,3-propanediol, using experimental conditions similar to that described for Example 1. In addition three experiments were performed to prepare carriers containing 800 ppm and 500 ppm nitric oxide. HNC 157-62 was formed of 65% Phospholipon-90G (American Lecithin Company), 18% isopropyl palmitate (Kraft Chemicals), 8% capric caprylic triglycerides (RITA Corp.), and 9% propanediol (Dupont). HNC 157-65 was formed of 65% Phospholipon-90G, 13% isopropyl palmitate, 14% capric caprylic triglycerides, 3% propanediol, and 5% dimethyl isosorbide (Croda). HNC 157-69 was formed from 65% Phospholipon-90G, 16% isopropyl palmitate, and 19% capric caprylic triglycerides.
The compositions were generally prepared as follows. Isopropyl palmitate, capric caprylic triglyceride, propanediol (for HNC 157-62 and HNC 157-65), and dimethyl isosorbide (for HNC 157-65) were mixed together and warmed to 40° C. Phospholipon-90G was then gradually added to this liquid mixture by mixing it. Phospholipon-90G is typically received as individual pellets, and is mixed into the solution until fully dissolved. The mixture was subsequently filtered through a sieve to remove any undissolved Phospholipon-90G. […]

SMILES	vasodilatation versus control untreated skin [1]	laser Doppler response to positive control [2]	% Wt. gain [3] [%]	Wt. Gain [3] [g]
COC(=O)c1cccnc1 [methyl nicotinate]	vasodilatation was observed	rapid response typical of the vasodilator		
OCCCO [1,3-Propanediol, 1,3-propanediol]			0.09	0.16
